We go through 14 compounds from ChEMBL document CHEMBL3046289, “Synthesis and in vitro antimicrobial activity of some newer quinazolinonesulfonamide linked hybrid heterocyclic entities derived from glycine” (2013).

Assay type in all cases: functional
One experiment concerns Staphylococcus aureus. Description: Antibacterial activity against Staphylococcus aureus MTCC 2940 assessed as growth inhibition after 24 hr by broth microdilution method. Particulars: MTCC 2940, 24 h. Background: Broth dilution looks for growth in wells or tubes with falling amounts of substance.
For a further experiment, the system named is Klebsiella pneumoniae. In words: Antibacterial activity against Klebsiella pneumoniae MTCC 139 assessed as growth inhibition after 24 hr by broth microdilution method. Particulars: MTCC 139, 24 h.
For a further experiment, the system named is Escherichia coli. In words: Antibacterial activity against Escherichia coli MTCC 443 assessed as growth inhibition after 24 hr by broth microdilution method. Particulars: MTCC 443, 24 h.
A further experiment concerns Candida albicans. In words: Antifungal activity against Candida albicans MTCC 227 assessed as growth inhibition after 48 hr by broth microdilution method. Particulars: MTCC 227, 48 h.
Another experiment concerns Pseudomonas aeruginosa. In words: Antibacterial activity against Pseudomonas aeruginosa MTCC 1688 assessed as growth inhibition after 24 hr by broth microdilution method. Conditions: MTCC 1688, 24 h.
A further experiment relates to Aspergillus niger. Description: Antifungal activity against Aspergillus niger MTCC 282 assessed as growth inhibition after 48 hr by broth microdilution method. Particulars: MTCC 282, 48 h.
The test system of the next experiment is Bacillus cereus. Description: Antibacterial activity against Bacillus cereus MTCC 1305 assessed as growth inhibition after 24 hr by broth microdilution method. Conditions: MTCC 1305, 24 h.

In brackets after ≈: the same amount, converted by molar mass.

For the compound `Nc1ccc(S(=O)(=O)NCc2nc3ccccc3c(=O)n2-c2ccccc2Br)cc1`, the MIC (usually the lowest concentration that inhibits growth of the organism) amounted to 55 µg/mL (≈ 113 µM) in the experiment with Staphylococcus aureus; 85 µg/mL (≈ 175 µM) in the experiment on Klebsiella pneumoniae; 55 µg/mL (≈ 113 µM) in the experiment on Escherichia coli; 55 µg/mL (≈ 113 µM) in the experiment with Candida albicans; 65 µg/mL (≈ 134 µM) in the experiment with Pseudomonas aeruginosa; 45 µg/mL (≈ 92.7 µM) with Aspergillus niger. The MIC in the experiment with Bacillus cereus was 70 µg/mL (≈ 144 µM).
As to `Nc1ccc(S(=O)(=O)NCc2nc3ccccc3c(=O)n2-c2ccccc2F)cc1`, the MIC in the experiment with Staphylococcus aureus stood at 65 µg/mL (≈ 153 µM); with Klebsiella pneumoniae, 95 µg/mL (≈ 224 µM); in the experiment with Escherichia coli, 65 µg/mL (≈ 153 µM); in the experiment on Candida albicans, 65 µg/mL (≈ 153 µM); with Pseudomonas aeruginosa, 70 µg/mL (≈ 165 µM); with Aspergillus niger, 55 µg/mL (≈ 130 µM). In addition, the MIC in the experiment on Bacillus cereus is 90 µg/mL (≈ 212 µM).
As to `Nc1ccc(S(=O)(=O)NCc2nc3ccccc3c(=O)n2-c2ccc(F)cc2)cc1`, the MIC stood at 60 µg/mL (≈ 141 µM) in the experiment on Staphylococcus aureus; 85 µg/mL (≈ 200 µM) in the experiment on Klebsiella pneumoniae; 55 µg/mL (≈ 130 µM) in the experiment on Escherichia coli; 60 µg/mL (≈ 141 µM) with Candida albicans; 65 µg/mL (≈ 153 µM) in the experiment on Pseudomonas aeruginosa; 45 µg/mL (≈ 106 µM) with Aspergillus niger. Also, the MIC with Bacillus cereus was determined as 55 µg/mL (≈ 130 µM).
For the compound `CC(=O)Nc1ccc(S(=O)(=O)NCc2nc3ccccc3c(=O)n2-c2ccccc2F)cc1`, the MIC with Staphylococcus aureus worked out at 85 µg/mL (≈ 182 µM); with Klebsiella pneumoniae, 95 µg/mL (≈ 204 µM); with Escherichia coli, 80 µg/mL (≈ 171 µM); in the experiment with Candida albicans, 85 µg/mL (≈ 182 µM); in the experiment on Pseudomonas aeruginosa it was 95 µg/mL (≈ 204 µM); in the experiment with Aspergillus niger it was 70 µg/mL (≈ 150 µM). Also, the MIC in the experiment on Bacillus cereus was 105 µg/mL (≈ 225 µM).
In the case of `CC(=O)Nc1ccc(S(=O)(=O)NCc2nc3ccccc3c(=O)n2-c2ccc(F)cc2)cc1`, the MIC in the experiment with Staphylococcus aureus is 80 µg/mL (≈ 171 µM); in the experiment with Klebsiella pneumoniae it was 95 µg/mL (≈ 204 µM); in the experiment on Escherichia coli, 75 µg/mL (≈ 161 µM); in the experiment on Candida albicans, 80 µg/mL (≈ 171 µM); in the experiment on Pseudomonas aeruginosa, 85 µg/mL (≈ 182 µM); in the experiment with Aspergillus niger, 55 µg/mL (≈ 118 µM). In addition, the minimum inhibitory concentration (MIC) with Bacillus cereus worked out at 95 µg/mL (≈ 204 µM).
Turning to `Nc1ccc(S(=O)(=O)NCc2nc3ccccc3c(=O)n2Nc2ccccc2)cc1`, the MIC with Staphylococcus aureus was determined as 100 µg/mL (≈ 237 µM); in the experiment on Klebsiella pneumoniae it was 115 µg/mL (≈ 273 µM); with Escherichia coli, 90 µg/mL (≈ 214 µM); with Candida albicans, 115 µg/mL (≈ 273 µM); with Pseudomonas aeruginosa, 95 µg/mL (≈ 225 µM); in the experiment with Aspergillus niger, 105 µg/mL (≈ 249 µM). The MIC in the experiment on Bacillus cereus stood at 105 µg/mL (≈ 249 µM).
With `CC(=O)Nc1ccc(S(=O)(=O)NCc2nc3ccccc3c(=O)n2Nc2ccccc2)cc1`, the MIC in the experiment with Staphylococcus aureus is 100 µg/mL (≈ 216 µM); in the experiment with Klebsiella pneumoniae, 145 µg/mL (≈ 313 µM); in the experiment with Escherichia coli it was 115 µg/mL (≈ 248 µM); in the experiment with Candida albicans, 120 µg/mL (≈ 259 µM); in the experiment with Pseudomonas aeruginosa, 125 µg/mL (≈ 270 µM); in the experiment on Aspergillus niger, 105 µg/mL (≈ 227 µM). In the experiment on Bacillus cereus, the MIC amounted to 130 µg/mL (≈ 280 µM).
Turning to `COc1cccc(-n2c(CNS(=O)(=O)c3ccc(NC(C)=O)cc3)nc3ccccc3c2=O)c1`, the MIC came to 85 µg/mL (≈ 178 µM) in the experiment on Staphylococcus aureus; 110 µg/mL (≈ 230 µM) with Klebsiella pneumoniae; 75 µg/mL (≈ 157 µM) in the experiment on Escherichia coli; 70 µg/mL (≈ 146 µM) in the experiment on Candida albicans; 100 µg/mL (≈ 209 µM) with Pseudomonas aeruginosa; 65 µg/mL (≈ 136 µM) with Aspergillus niger. Also, the MIC with Bacillus cereus worked out at 90 µg/mL (≈ 188 µM).
Regarding `COc1ccc(-n2c(CNS(=O)(=O)c3ccc(NC(C)=O)cc3)nc3ccccc3c2=O)cc1`, the MIC with Staphylococcus aureus worked out at 55 µg/mL (≈ 115 µM); with Klebsiella pneumoniae it was 100 µg/mL (≈ 209 µM); in the experiment on Escherichia coli, 50 µg/mL (≈ 104 µM); with Candida albicans it was 50 µg/mL (≈ 104 µM); with Pseudomonas aeruginosa, 90 µg/mL (≈ 188 µM); in the experiment with Aspergillus niger, 40 µg/mL (≈ 83.6 µM). Moreover, the MIC with Bacillus cereus was 65 µg/mL (≈ 136 µM).
`Nc1ccc(S(=O)(=O)NCc2nc3ccccc3c(=O)n2-c2ccccc2[N+](=O)[O-])cc1`: the MIC in the experiment on Staphylococcus aureus worked out at 75 µg/mL (≈ 166 µM); with Klebsiella pneumoniae it was 95 µg/mL (≈ 210 µM); in the experiment on Escherichia coli, 70 µg/mL (≈ 155 µM); in the experiment with Candida albicans, 65 µg/mL (≈ 144 µM); in the experiment with Pseudomonas aeruginosa, 75 µg/mL (≈ 166 µM); in the experiment with Aspergillus niger, 55 µg/mL (≈ 122 µM). In the experiment with Bacillus cereus, the minimum inhibitory concentration (MIC) was found to be 85 µg/mL (≈ 188 µM).
In the case of `Nc1ccc(S(=O)(=O)NCc2nc3ccccc3c(=O)n2-c2cccc([N+](=O)[O-])c2)cc1`, the MIC with Staphylococcus aureus turned out to be 70 µg/mL (≈ 155 µM); in the experiment on Klebsiella pneumoniae it was 90 µg/mL (≈ 199 µM); with Escherichia coli, 60 µg/mL (≈ 133 µM); with Candida albicans it was 60 µg/mL (≈ 133 µM); in the experiment on Pseudomonas aeruginosa, 65 µg/mL (≈ 144 µM); with Aspergillus niger it was 50 µg/mL (≈ 111 µM). In addition, the MIC in the experiment on Bacillus cereus came out at 85 µg/mL (≈ 188 µM).
With `Nc1ccc(S(=O)(=O)NCc2nc3ccccc3c(=O)n2-c2ccc([N+](=O)[O-])cc2)cc1`, the MIC in the experiment with Staphylococcus aureus worked out at 65 µg/mL (≈ 144 µM); in the experiment with Klebsiella pneumoniae it was 75 µg/mL (≈ 166 µM); in the experiment with Escherichia coli, 55 µg/mL (≈ 122 µM); with Candida albicans, 55 µg/mL (≈ 122 µM); in the experiment with Pseudomonas aeruginosa it was 60 µg/mL (≈ 133 µM); in the experiment on Aspergillus niger, 45 µg/mL (≈ 99.7 µM). In addition, the MIC with Bacillus cereus was found to be 75 µg/mL (≈ 166 µM).
Take `CC(=O)Nc1ccc(S(=O)(=O)NCc2nc3ccccc3c(=O)n2-c2ccccc2[N+](=O)[O-])cc1`: the MIC in the experiment with Staphylococcus aureus came to 85 µg/mL (≈ 172 µM); with Klebsiella pneumoniae it was 115 µg/mL (≈ 233 µM); in the experiment on Escherichia coli, 75 µg/mL (≈ 152 µM); in the experiment with Candida albicans it was 80 µg/mL (≈ 162 µM); with Pseudomonas aeruginosa it was 100 µg/mL (≈ 203 µM); in the experiment on Aspergillus niger, 65 µg/mL (≈ 132 µM). In addition, the MIC with Bacillus cereus came to 90 µg/mL (≈ 182 µM).
`CC(=O)Nc1ccc(S(=O)(=O)NCc2nc3ccccc3c(=O)n2-c2cccc([N+](=O)[O-])c2)cc1`: the MIC in the experiment with Staphylococcus aureus worked out at 80 µg/mL (≈ 162 µM); in the experiment on Klebsiella pneumoniae, 110 µg/mL (≈ 223 µM); in the experiment on Escherichia coli, 70 µg/mL (≈ 142 µM); in the experiment with Candida albicans, 75 µg/mL (≈ 152 µM); with Pseudomonas aeruginosa it was 95 µg/mL (≈ 193 µM); in the experiment with Aspergillus niger it was 60 µg/mL (≈ 122 µM). For the same compound, the MIC in the experiment on Bacillus cereus is 80 µg/mL (≈ 162 µM).
